Here are results for 27 compounds from ChEMBL document CHEMBL5236647, “The discovery of 3,3-dimethyl-1,2,3,4-tetrahydroquinoxaline-1-carboxamides as AMPD2 inhibitors with a novel mechanism of action” (Bioorg Med Chem Lett, 2023).

The source made the active and inactive calls. No cut-off for these calls is given here. Where only a bound is given, the exact number is not on record here.

For data set [1], the target named is T1, AMP deaminase 2 (Homo sapiens, UniProt Q01433).
T1 sequence (Q01433 whole entry): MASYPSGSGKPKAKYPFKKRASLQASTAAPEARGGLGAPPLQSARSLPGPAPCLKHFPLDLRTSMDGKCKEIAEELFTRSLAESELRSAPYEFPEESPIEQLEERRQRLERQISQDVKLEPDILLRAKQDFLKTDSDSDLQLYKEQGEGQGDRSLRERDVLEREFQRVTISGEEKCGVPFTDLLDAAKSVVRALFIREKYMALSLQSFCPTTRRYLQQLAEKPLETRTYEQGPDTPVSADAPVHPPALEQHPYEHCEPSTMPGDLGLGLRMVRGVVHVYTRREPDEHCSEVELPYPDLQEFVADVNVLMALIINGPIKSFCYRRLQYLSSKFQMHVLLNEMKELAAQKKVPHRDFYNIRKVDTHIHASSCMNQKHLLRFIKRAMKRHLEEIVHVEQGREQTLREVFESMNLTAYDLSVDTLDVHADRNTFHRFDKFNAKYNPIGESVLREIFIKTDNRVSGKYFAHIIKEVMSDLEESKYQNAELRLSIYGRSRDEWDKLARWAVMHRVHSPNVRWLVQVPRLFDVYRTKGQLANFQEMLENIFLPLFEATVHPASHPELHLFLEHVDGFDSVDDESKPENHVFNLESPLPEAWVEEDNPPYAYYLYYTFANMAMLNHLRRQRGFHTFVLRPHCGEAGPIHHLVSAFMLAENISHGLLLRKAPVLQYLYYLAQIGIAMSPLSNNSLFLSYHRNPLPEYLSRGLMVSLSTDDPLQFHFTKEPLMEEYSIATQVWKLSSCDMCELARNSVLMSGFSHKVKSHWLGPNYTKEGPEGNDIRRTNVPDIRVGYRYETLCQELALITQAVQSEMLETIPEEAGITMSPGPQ
The data set is described as follows: Inhibition of recombinant human AMPD2 using AMP as substrate incubated for 30 mins by spectrophotometric analysis.

Data set [2] addresses T1, AMP deaminase 2. The data set is described as follows: Inhibition of recombinant human AMPD2 using AMP as substrate preincubated for 30 mins followed by substrate addition and measured after 30 mins by spectrophotometric analysis.
In data set [3] the target is T2, AMP deaminase 2 (Homo sapiens) (UniProt Q01433).
T2 sequence (whole entry): T1 sequence (Q01433 whole entry)
The data set is described as follows: Selectivity ratio of IC50 for recombinant human AMPD2 using AMP as substrate incubated for 30 mins by spectrophotometric analysis to IC50 for recombinant human AMPD2 using AMP as substrate preincubated for 30 mins followed by substrate addition and measured after 30 mins by spectrophotometric analysis.

Data set [4] concerns the target T3, AMP deaminase 2 (Mus musculus, UniProt Q9DBT5).
T3 sequence (Q9DBT5 whole entry): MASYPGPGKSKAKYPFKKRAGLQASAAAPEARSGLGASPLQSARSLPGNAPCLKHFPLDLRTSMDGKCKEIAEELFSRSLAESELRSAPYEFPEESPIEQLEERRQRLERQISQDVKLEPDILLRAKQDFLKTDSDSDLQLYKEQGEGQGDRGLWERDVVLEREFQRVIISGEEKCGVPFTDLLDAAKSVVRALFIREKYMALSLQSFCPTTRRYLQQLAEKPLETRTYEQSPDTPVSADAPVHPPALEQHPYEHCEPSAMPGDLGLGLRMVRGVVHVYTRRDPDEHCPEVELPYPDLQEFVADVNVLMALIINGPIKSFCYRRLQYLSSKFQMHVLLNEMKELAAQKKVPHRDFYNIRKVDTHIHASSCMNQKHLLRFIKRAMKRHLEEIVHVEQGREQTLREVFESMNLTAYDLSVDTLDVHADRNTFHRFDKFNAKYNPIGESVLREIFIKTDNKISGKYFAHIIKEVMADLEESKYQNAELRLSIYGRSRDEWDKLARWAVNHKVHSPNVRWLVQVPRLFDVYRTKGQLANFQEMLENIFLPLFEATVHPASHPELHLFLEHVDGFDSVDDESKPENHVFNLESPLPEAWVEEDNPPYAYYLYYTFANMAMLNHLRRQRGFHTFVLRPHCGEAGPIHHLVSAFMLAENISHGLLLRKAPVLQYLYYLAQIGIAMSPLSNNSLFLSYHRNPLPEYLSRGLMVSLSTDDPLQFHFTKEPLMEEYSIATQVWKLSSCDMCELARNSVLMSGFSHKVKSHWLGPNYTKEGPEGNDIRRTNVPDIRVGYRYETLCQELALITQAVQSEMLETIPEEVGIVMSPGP
The data set is described as follows: Inhibition of recombinant mouse AMPD2 using AMP as substrate preincubated for 30 mins followed by substrate addition and measured after 30 mins by spectrophotometric analysis.

Data set [5] is described as follows: Metabolic stability in mouse liver microsomes assessed as compound remaining at 5 uM after 1 hr. As to conditions: read-out: Stability. It is filed as ADME, Microsome. (Liver microsomes are a subcellular fraction often used to study metabolism.)
Data set [6] in a line: Ex vivo inhibition of AMPD2 in C57BL/6J mouse liver at 30 mg/kg, po administered for 1 hr. Type of data set: functional.
In data set [7] the target is T4, AMP deaminase 1 (Homo sapiens) (UniProt P23109).
T4 sequence (whole entry): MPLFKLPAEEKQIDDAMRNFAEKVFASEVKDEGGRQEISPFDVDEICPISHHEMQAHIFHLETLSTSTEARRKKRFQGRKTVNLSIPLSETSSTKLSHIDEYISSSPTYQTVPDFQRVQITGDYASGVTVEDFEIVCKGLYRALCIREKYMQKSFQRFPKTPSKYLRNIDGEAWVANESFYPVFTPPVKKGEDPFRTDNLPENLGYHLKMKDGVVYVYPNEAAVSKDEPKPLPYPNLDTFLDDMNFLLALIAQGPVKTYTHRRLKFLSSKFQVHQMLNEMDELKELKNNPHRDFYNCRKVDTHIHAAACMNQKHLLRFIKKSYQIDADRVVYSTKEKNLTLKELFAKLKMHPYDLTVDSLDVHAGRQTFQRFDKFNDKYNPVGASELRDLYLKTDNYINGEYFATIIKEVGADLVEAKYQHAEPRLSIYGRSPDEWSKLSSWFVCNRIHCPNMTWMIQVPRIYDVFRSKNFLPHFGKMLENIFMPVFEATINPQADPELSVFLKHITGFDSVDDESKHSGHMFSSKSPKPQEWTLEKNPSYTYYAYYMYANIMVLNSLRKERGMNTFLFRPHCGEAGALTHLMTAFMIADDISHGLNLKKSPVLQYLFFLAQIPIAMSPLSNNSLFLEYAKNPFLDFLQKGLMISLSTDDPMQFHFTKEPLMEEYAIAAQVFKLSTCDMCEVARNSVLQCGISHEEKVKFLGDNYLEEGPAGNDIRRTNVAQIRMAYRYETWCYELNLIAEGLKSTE
The data set is described as follows: Inhibition of AMPD1 (unknown origin) at 100 uM.

Take `CC1(C)CN(C(N)=O)c2cccc(F)c2N1Cc1ccccc1`: the IC50 in data set [1] turned out to be 1100 nM; in data set [2], 30 nM. In addition, the Ratio IC50 in data set [3] amounted to 36.

`CC1(C)CN(C(N)=O)c2ccccc2N1Cc1ccc(Cl)cc1`: the IC50 in data set [1] amounted to 1700 nM; in data set [2], 190 nM. The Ratio IC50 in data set [3] was 8.9.

On to `CC1(C)CN(C(N)=O)c2ccccc2N1Cc1cccc(OC(F)(F)F)c1`, for which the IC50 stood at 1300 nM in data set [1] and 140 nM in data set [2]. For the same compound, the Ratio IC50 in data set [3] turned out to be 9.2.

Turning to `Cc1cccc2c1N(Cc1ccccc1)C(C)(C)CN2C(N)=O`, the IC50 in data set [1] is 5000 nM; in data set [2] it was 2200 nM. Moreover, the Ratio IC50 in data set [3] worked out at 2.3.

`CC1(C)CN(C(N)=O)c2cccc(Cl)c2N1Cc1ccccc1`: the IC50 in data set [1] came out at 1700 nM; in data set [2], 180 nM. The Ratio IC50 in data set [3] was determined as 9.2.

With `CC1(C)CN(C(N)=O)c2ccc(F)c(F)c2N1Cc1ccc(COc2ccc(CO)cc2)cc1`, the values for the IC50 in data set [2] and in data set [4] were 100 nM and 110 nM, respectively. For the same compound, the remaining at 1 h, 5 µM in data set [5] came to 46%. This compound gave an inhibition in vivo at 30 mg/kg in data set [6] of 83%.

Consider `CC1(C)CN(C(N)=O)c2ccccc2N1Cc1ccc(OCc2ccccc2)cc1`, for which the 50% inhibitory concentration (IC50) in data set [1] was 3100 nM; in data set [2], 740 nM. Also, the Ratio IC50 in data set [3] is 4.2.

`CC1(C)CN(C(N)=O)c2cc(F)ccc2N1Cc1ccccc1`: the IC50 in data set [1] turned out to be 1900 nM; in data set [2] it was 240 nM. In data set [3], the Ratio IC50 stood at 8.2.

`CCC(=O)N1CC(C)(C)N(Cc2ccccc2)c2ccccc21`: the IC50 in data set [1] is greater than 100000 nM.

In the case of `CC1(C)CN(C(N)=O)c2ccccc2N1Cc1cccc(CCc2ccccc2)c1`, the IC50 in data set [1] was greater than 3000 nM; in data set [2], 500 nM.

As for `CC1(C)CN(C(N)=O)c2cc(F)cc(F)c2N1Cc1ccccc1`, the IC50 in data set [1] turned out to be 4100 nM; in data set [2], 260 nM. Moreover, the Ratio IC50 in data set [3] came out at 16.

For the compound `CC1(C)CN(C(N)=O)c2ccc(F)cc2N1Cc1ccccc1`, the IC50 in data set [1] was determined as 5100 nM; in data set [2], 1100 nM. For the same compound, the Ratio IC50 in data set [3] came out at 4.6.

For `Cc1ccc(CN2c3ccccc3N(C(N)=O)CC2(C)C)cc1`, the IC50 in data set [1] came to 1400 nM; in data set [2], 170 nM. The Ratio IC50 in data set [3] was found to be 8.2.

As to `CC1(C)CN(C(N)=O)c2ccccc2N1Cc1ccc(CCc2ccccc2)cc1`, the IC50 was found to be 6000 nM in data set [1] and 410 nM in data set [2]. Moreover, the Ratio IC50 in data set [3] came to 15.

As to `CC(=O)N1CC(C)(C)N(Cc2ccccc2)c2ccccc21`, the IC50 came out at 57000 nM in data set [1] and 41000 nM in data set [2]. Besides, in data set [3], the Ratio IC50 stood at 1.4.

For `CC1(C)CN(C(N)=O)c2ccc(F)c(F)c2N1Cc1ccc(COc2ccccc2)cc1`, in data set [2], the IC50 stood at 130 nM. The remaining at 1 h, 5 µM in data set [5] came to 51%. Further, 30 mg/kg produced 24% inhibition in vivo in data set [6].

As to `CNC(=O)N1CC(C)(C)N(Cc2ccccc2)c2ccccc21`, the IC50 in data set [1] is greater than 100000 nM.

`Cc1cccc(CN2c3ccccc3N(C(N)=O)CC2(C)C)c1`: the IC50 was 2300 nM in data set [1] and 300 nM in data set [2]. Besides, the Ratio IC50 in data set [3] is 7.5.

Turning to `CC1(C)CN(C(N)=O)c2ccc(F)c(F)c2N1Cc1ccc(COc2ccc(C(N)=O)cc2)cc1`, in data set [2], the IC50 worked out at 200 nM. The remaining at 1 h, 5 µM in data set [5] worked out at 56%. The compound further returned an inhibition in vivo at 30 mg/kg in data set [6] of 58%.

`CC1(C)CN(C(N)=O)c2ccccc2N1Cc1ccc(OC(F)(F)F)cc1`: the IC50 is 4100 nM in data set [1] and 270 nM in data set [2]. For the same compound, the Ratio IC50 in data set [3] is 15.

Turning to `CC1(C)CN(C(N)=O)c2ccc(F)c(F)c2N1Cc1ccccc1`, the values for the IC50 in data set [1], in data set [2] and in data set [4] were 1800 nM, 60 nM and 40 nM, respectively. In data set [3], the Ratio IC50 amounted to 33. In data set [5], the remaining at 1 h, 5 µM came to 18%. Also, the inhibition in vivo at 30 mg/kg in data set [6] is 71%.

For `CC(=O)Nc1ccc(OCc2ccc(CN3c4c(ccc(F)c4F)N(C(N)=O)CC3(C)C)cc2)cc1`, the IC50 in data set [2] came to 170 nM. Moreover, the remaining at 1 h, 5 µM in data set [5] is 34%. Besides, at 30 mg/kg the inhibition in vivo in data set [6] was 19%.

For the compound `CC1(C)CN(S(C)(=O)=O)c2ccccc2N1Cc1ccccc1`, in data set [1], the IC50 is greater than 100000 nM.

Regarding `CC1(C)CN(C(N)=O)c2ccccc2N1Cc1ccccc1`, the figures for the IC50 in data set [1] and in data set [2] were 3000 nM and 270 nM, respectively. Besides, the Ratio IC50 in data set [3] came to 11. Further, the inhibition entry in data set [7] was “inactive”.

Take `CC1(C)CN(C(N)=O)c2ccccc2N1Cc1ccccc1Cl`: the figures for the IC50 in data set [1] and in data set [2] were 21000 nM and 12000 nM, respectively. Moreover, the Ratio IC50 in data set [3] is 1.8.

Take `CC1(C)CN(C(N)=O)c2ccccc2N1Cc1ccc(COc2ccccc2)cc1`: the IC50 in data set [1] is 2600 nM; in data set [2], 110 nM. In addition, the Ratio IC50 in data set [3] was determined as 25.

Regarding `CC1(C)CN(C(N)=O)c2c(F)cccc2N1Cc1ccccc1`, the IC50 turned out to be 4000 nM in data set [1] and 500 nM in data set [2]. Further, the Ratio IC50 in data set [3] stood at 8.

For orientation: IC50 means the point on the concentration scale where inhibition reaches its midpoint. By inhibition in vivo is commonly meant the relative decrease from the control value, in per cent.
